In patent publication US8476261B2, “Spirocyclic aminoquinolones as GSK-3 inhibitors” (Kyorin Pharmaceutical Co., Ltd., priority 2007, dated 2013):

What follows are molecules tested against T1, recombinant full-length human GSK3β (Homo sapiens, UniProt P49841) (assay: cell-free GSK3 kinase assay (KinaseGlo luciferase)). Conditions: Table 1; 5 μM ATP, 1 hour at 30 degrees Celsius.
T1 construct: recombinant full-length human GSK3β (Upstate); purchased Upstate
Type: biochemical
Procedure: Proceed to KinaseGlo luciferase reaction.
Following the completion of the kinase reaction an equal volume of KinaseGlo luciferase reagent (Promega) is added and the luminescence read using a luminescence plate reader within 5-10 minutes.

T1 sequence (P49841 whole entry): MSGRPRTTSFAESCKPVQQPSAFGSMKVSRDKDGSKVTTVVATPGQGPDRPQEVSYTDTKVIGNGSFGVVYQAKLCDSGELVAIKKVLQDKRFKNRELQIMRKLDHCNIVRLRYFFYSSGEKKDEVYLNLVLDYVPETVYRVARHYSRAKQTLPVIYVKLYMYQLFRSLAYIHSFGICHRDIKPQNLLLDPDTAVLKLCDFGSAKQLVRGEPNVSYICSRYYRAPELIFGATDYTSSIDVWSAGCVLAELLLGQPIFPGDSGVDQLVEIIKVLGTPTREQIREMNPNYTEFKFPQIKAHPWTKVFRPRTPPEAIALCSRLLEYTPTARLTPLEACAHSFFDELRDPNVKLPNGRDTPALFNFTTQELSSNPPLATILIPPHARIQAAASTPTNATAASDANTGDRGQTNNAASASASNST

Row | Compound | IC50
1 | Nc1c(F)c(NCCCc2ccccc2Cl)c2c3c1c(=O)c(C(=O)O)cn3C1(CCCC1)CO2 [Compound 27] | < 15 nM
2 | Nc1c(F)c(NCCCn2cncn2)c2c3c1c(=O)c(C(=O)O)cn3C1(CCCC1)CO2 [Compound 3] | 61 to 150 nM
3 | Nc1c(F)c(NCCSc2nnnn2-c2ccccc2)c2c3c1c(=O)c(C(=O)O)cn3C1(CCCC1)CO2 [Compound 21] | < 15 nM
4 | Nc1c(F)c(NCCOc2ccccc2)c2c3c1c(=O)c(C(=O)O)cn3C1(CCCC1)CO2 [Compound 66] | > 150 nM
5 | Nc1c(F)c(N2CCC(Nc3ccccn3)C2)c2c3c1c(=O)c(C(=O)O)cn3C1(CCCC1)CO2 (stereo not drawn) [Compound 98] | > 150 nM
6 | COc1ccc(CNc2c(F)c(N)c3c(=O)c(C(=O)O)cn4c3c2OCCC42CCC2)cc1 [Compound 55] | 61 to 150 nM
7 | Cc1ccc(OCCNc2c(F)c(N)c3c(=O)c(C(=O)O)cn4c3c2OCC42CCCC2)cc1 [Compound 25] | 16 to 60 nM
8 | Nc1c(F)c(NCCCn2ccnc2)c2c3c1c(=O)c(C(=O)O)cn3C1(CCC1)CCO2 [Compound 97] | 16 to 60 nM
9 | Nc1c(F)c(N[C@H]2C[C@H]2Cc2ccccn2)c2c3c1c(=O)c(C(=O)O)cn3C1(CCCC1)CO2 [Compound 63] | > 150 nM
10 | Nc1c(F)c(NCCNc2ccccn2)c2c3c1c(=O)ccn3C1(CCC1)CCO2 [Compound 82] | 16 to 60 nM
11 | Nc1c(F)c(NCCC(c2ccccc2)c2ccc3c(c2)OCO3)c2c3c1c(=O)c(C(=O)O)cn3C1(CCCC1)CO2 (stereo not drawn) [Compound 72] | > 150 nM
12 | Nc1c(F)c(NCC(O)Cn2cnc3ccccc32)c2c3c1c(=O)c(C(=O)O)cn3C1(CCCC1)CO2 (stereo not drawn) [Compound 22] | 61 to 150 nM
13 | Nc1c(F)c(NCCCc2ccc(F)cc2)c2c3c1c(=O)c(C(=O)O)cn3C1(CCCC1)CO2 [Compound 4] | < 15 nM
14 | Nc1c(F)c(NCCN2CCc3ccccc32)c2c3c1c(=O)c(C(=O)O)cn3C1(CCCC1)CO2 [Compound 24] | 61 to 150 nM
15 | CCN(CCCNc1c(F)c(N)c2c(=O)c(C(=O)O)cn3c2c1OCC31CCCC1)c1ccccc1 [Compound 23] | < 15 nM
16 | Nc1c(F)c(NCCOc2ccc(C3CCCCC3)cc2)c2c3c1c(=O)c(C(=O)O)cn3C1(CCCC1)CO2 [Compound 17] | > 150 nM

Continued, values first:

Row | IC50 | Compound
17 | > 150 nM | CNC(=O)c1cn2c3c(c(NCCNc4ccccn4)c(F)c(N)c3c1=O)OCCC21CCC1 [Compound 90]
18 | < 15 nM | Nc1c(F)c(NCCCc2ccccn2)c2c3c1c(=O)c(C(=O)O)cn3C1(CCC1)CCO2 [Compound 56]
19 | 16 to 60 nM | Nc1c(F)c(NCCNc2ccccn2)c2c3c1c(=O)c(C(=O)O)cn3C1(CCC1)CCN2 [Compound 53]
20 | 16 to 60 nM | Nc1c(F)c(NCCNC(=O)c2ccccn2)c2c3c1c(=O)c(C(=O)O)cn3C1(CCC1)CCO2 [Compound 58]
21 | 61 to 150 nM | Nc1c(F)c(NCCNc2ccccn2)c2c3c1c(=O)c(C(=O)O)cn3CC1(CCC1)O2 [Compound 45]
22 | 16 to 60 nM | Nc1c(F)c(NCCNC(=O)c2ccccn2)c2c3c1c(=O)c(C(=O)O)cn3C1(CCCC1)CO2 [Compound 68]
23 | 61 to 150 nM | Nc1c(Cl)c(NCCNc2ccccn2)c2c3c1c(=O)c(C(=O)O)cn3C1(CCC1)CCO2 [Compound 95]
24 | > 150 nM | CC1CC2(CCC2)n2cc(C(=O)O)c(=O)c3c(N)c(F)c(NCCNc4ccccn4)c(c32)O1 (stereo not drawn) [Compound 50]
